Patent US20160311817A1, “HETEROARYL SULTAM DERIVATIVES AS RORc MODULATORS” (Genentech, Inc., priority 2014, published 2016)

Target: T1, RORc ligand binding domain (Homo sapiens, UniProt P51449)
T1 construct: host or cells: E. coli
T1 sequence (P51449 269-508 limits assumed): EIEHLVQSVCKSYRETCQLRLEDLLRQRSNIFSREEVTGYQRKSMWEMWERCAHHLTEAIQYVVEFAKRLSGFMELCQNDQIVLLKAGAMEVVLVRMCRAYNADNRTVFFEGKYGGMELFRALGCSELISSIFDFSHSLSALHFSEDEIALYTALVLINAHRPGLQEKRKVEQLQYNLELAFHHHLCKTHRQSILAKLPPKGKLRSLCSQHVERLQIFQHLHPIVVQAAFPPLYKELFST
Experiment: In Vitro RORc Ligand Binding Assay
Conditions: radioligand 25-[3H]hydroxycholesterol 6 nM; 0.6 ug/mL RORc receptor; 3 h at 25° C.
Description: In Vitro RORc Ligand Binding Assay
This assay was used to determine a compound's potency in inhibiting activity of RORc by determining, Kiapp, IC50, or percent inhibition values.
On day of the assay, 100 uL of 0.05% CHAPS (in deionized H2O) was added to all wells of the GFB Unifilter plate and allowed soak for 1 h. A wash buffer of 50 mM HEPES (pH 7.4), 150 mM NaCl, and 5 mM MgCl2 was prepared to wash the filter plate. To prepare an assay buffer, BSA was added to the wash buffer to reach 0.01% and DTT was added to reach 1 mM.
For IC50 mode, 10 mM compound stocks were serially diluted in DMSO with DMSO to give 20× required final concentration in DMSO (15 uL compound+30 uL DMSO). The 20× compound stocks were diluted in DMSO with Assay Buffer 4-fold to reach 5× the final test concentration in 25% DMSO (10 uL compound+30 uL Assay Buffer). Solutions were mixed by aspiration several times with a pipette set on 50 uL volume. For the assay, 10 uL of 5× compound stock solutions in 25% DMSO were added to the assay plate in duplicate.
For two point screening, 10 mM stock compound solutions were diluted in DMSO to obtain 200 uM (20× the high test concentration) and then diluted 10-fold further to reach 20 uM (20× the low test concentration). The 20× stocks were diluted 4-fold with Assay Buffer (10 uL compound+30 uL Assay Buffer) to reach 5× the test concentrations (50 uM and 5 uM) and 10 uL were added to two assay plates for the duplicate wells. With each concentration tested on 2 plates, each set of 80 compounds used 4 assay plates (1 uM and 10 uM, with n=2).
25-hydroxycholesterol (1 uM) was used to determine the level of NSB signal is prepared in DMSO as for compounds above, then diluted in Assay Buffer to give a final concentration of 5 uM. For 25-hydroxycholesterol in 25% DMSO/75% Assay Buffer; 10 uL per well was used for NSB samples. Wells for Total Binding and No Receptor sample determination contained 10 uL of 25% DMSO/75% Assay Buffer per well.
25-[^3H]hydroxycholesterol was dilute in Assay Buffer to obtain 15 nM and vortex to mix. Add 20 uL to all wells to reach 6 nM final in the assay.
Stock receptor solution was diluted in assay buffer to obtain 1.5 ug/mL in Assay Buffer. 20 uL was added to all wells. For No R samples, 20 uL Assay Buffer was substituted for receptor solution.
Assay plates were 96-well polypropylene V-bottom plates. 10 uL of 5× compound in 25% DMSO/75% Assay Buffer was added to Test wells. 10 uL of 25% DMSO/75% Assay Buffer was added to Total Binding or No Receptor wells. 10 uL of 5 uM 25-hydroxycholesterol in 25% DMSO/75% Assay Buffer was added to NSB wells. 20 uL of 15 nM 25-[^3H]hydroxycholesterol prepared in Assay Buffer was added to all wells. 20 uL of 1.5 ug/mL RORc receptor was added to wells (or […] Assay Buffer to No R wells). Following addition to the wells, the plates were incubated 3 h at 25° C.
Using a Packard Filtermate Harvester, the filter plate were washed 4 times following transfer of the incubated samples. Plates were dry-filtered completely (2 h at 50° C. or overnight at room temperature). 50 uL Microscint 0 was added to all wells and read on Topcount protocol Inverted.
Final concentrations were as follows: 50 mM HEPES buffer (pH 7.4); 150 mM NaCl; 1 mM DTT; 5 mM MgCl2, 0.01% BSA; 5% DMSO; 0.6 ug/mL RORc receptor; 6 nM 25-[^3H]hydroxycholesterol. For NSB wells, 1 uM 25-hydroxycholesterol was also present.

SMILES | IC50
CC(=O)N1CCN(c2ccc(CN3[C@@H](C)CCC(c4ccncc4)S3(=O)=O)c(F)c2)CC1 (single isomer, unassigned) [Compound 8, 1-{4-[3-Fluoro-4-(3-methyl-1,1-dioxo-6-pyridin-4-yl-[1,2]thiazinan-2-ylmethyl)-phenyl]-piperazin-1-yl}-ethanone] | 1000 nM
C[C@H]1CCCS(=O)(=O)N1Cc1cc(F)c(N2C[C@@H]3C(n4cnnc4)[C@@H]3C2)cc1F (stereo partly drawn) [Compound 22, (1S,5R,6S)-3-[2,5-Difluoro-4-((S)-3-methyl-1,1-dioxo-[1,2]thiazinan-2-ylmethyl)-phenyl]-6-[1,2,4]triazol-4-yl-3-aza-bicyclo [3.1.0]hexane] | 601 nM
CC(=O)N1CCN(c2ccc(CN3[C@@H](C)CCC(c4cccnc4)S3(=O)=O)c(F)c2)CC1 (single isomer, unassigned) [Compound 15, 1-{4-[3-Fluoro-4-(3-methyl-1,1-dioxo-6-pyridin-3-yl-[1,2]thiazinan-2-ylmethyl)-phenyl]-piperazin-1-yl}-ethanone] | 4200 nM
CC(=O)N1CCN(c2ccc(CN3[C@@H](C)CCC(c4ncccn4)S3(=O)=O)c(F)c2)CC1 (single isomer, unassigned) [Compound 10, 1-{4-[3-Fluoro-4-(3-methyl-1,1-dioxo-6-pyrimidin-2-yl-[1,2]thiazinan-2-ylmethyl)-phenyl]-piperazin-1-yl}-ethanone] | 1100 nM
CC1CCC(C2CCCCC2)S(=O)(=O)N1Cc1cc(F)c(N2CC3C(C2)C3n2cnnc2)cc1F (single isomer, unassigned) [Compound 1, 3-[4-(6-Cyclohexyl-3-methyl-1,1-dioxo-[1,2]thiazinan-2-ylmethyl)-2,5-difluoro-phenyl]-6-[1,2,4]triazol-4-yl-3-aza-bicyclo [3.1.0]hexane] | 43 nM
CC(=O)N1CCN(c2ccc(CN3[C@@H](C)CCC(c4ncccn4)S3(=O)=O)c(F)c2)CC1 (single isomer, unassigned) [Compound 9, 1-{4-[3-Fluoro-4-(3-methyl-1,1-dioxo-6-pyrimidin-2-yl-[1,2]thiazinan-2-ylmethyl)-phenyl]-piperazin-1-yl}-ethanone] | 792 nM
CC1CC[C@H](C)N(Cc2cc(F)c(N3C[C@@H]4C(n5cnnc5)[C@@H]4C3)cc2F)S1(=O)=O (single isomer, unassigned) [Compound 5] | 74 nM
CC1CC[C@H](C)N(Cc2cc(F)c(N3C[C@@H]4C(n5cnnc5)[C@@H]4C3)cc2F)S1(=O)=O (single isomer, unassigned) [Compound 6] | 583 nM
CC(=O)N1CCN(c2ccc(CN3[C@@H](C)CCC(c4ccncc4)S3(=O)=O)c(F)c2)CC1 (single isomer, unassigned) [Compound 11, 1-{4-[3-Fluoro-4-(3-methyl-1,1-dioxo-6-pyridin-4-yl-[1,2]thiazinan-2-ylmethyl)-phenyl]-piperazin-1-yl}-ethanone] | 2200 nM
CC(=O)N1CCN(c2ccc(CN3[C@@H](C)CCC(c4ccsc4)S3(=O)=O)c(F)c2)CC1 (single isomer, unassigned) [Compound 12, 1-{4-[3-Fluoro-4-(3-methyl-1,1-dioxo-6-thiophen-3-yl-[1,2]thiazinan-2-ylmethyl)-phenyl]-piperazin-1-yl}-ethanone] | 36 nM
CC(=O)N1CCN(c2ccc(CN3[C@@H](C)CCC(c4ccsc4)S3(=O)=O)c(F)c2)CC1 (single isomer, unassigned) [Compound 13, 1-{4-[3-Fluoro-4-(3-methyl-1,1-dioxo-6-thiophen-3-yl-[1,2]thiazinan-2-ylmethyl)-phenyl]-piperazin-1-yl}-ethanone] | 123 nM
CC1CCC(C2CCCCC2)S(=O)(=O)N1Cc1cc(F)c(N2CC3C(C2)C3n2cnnc2)cc1F (single isomer, unassigned) [Compound 2, 3-[4-(6-Cyclohexyl-3-methyl-1,1-dioxo-[1,2]thiazinan-2-ylmethyl)-2,5-difluoro-phenyl]-6-[1,2,4]triazol-4-yl-3-aza-bicyclo [3.1.0]hexane] | 70 nM
CC(=O)N1CCN(c2ccc(CN3[C@@H](C)CCC(c4ccccn4)S3(=O)=O)c(F)c2)CC1 (single isomer, unassigned) [Compound 16, 1-{4-[3-Fluoro-4-(3-methyl-1,1-dioxo-6-pyridin-2-yl-[1,2]thiazinan-2-ylmethyl)-phenyl]-piperazin-1-yl}-ethanone] | 292 nM
CC(=O)N1CCN(c2ccc(CN3[C@@H](C)CCC(c4cccnc4)S3(=O)=O)c(F)c2)CC1 (single isomer, unassigned) [Compound 14, 1-{4-[3-Fluoro-4-(3-methyl-1,1-dioxo-6-pyridin-3-yl-[1,2]thiazinan-2-ylmethyl)-phenyl]-piperazin-1-yl}-ethanone] | 870 nM
CC(=O)N1CCN(c2ccc(CN3[C@@H](C)CCC(c4cccs4)S3(=O)=O)c(F)c2)CC1 (single isomer, unassigned) [Compound 7, 1-{4-[3-Fluoro-4-(3-methyl-1,1-dioxo-6-thiophen-2-yl-[1,2]thiazinan-2-ylmethyl)-phenyl]-piperazin-1-yl}-ethanone] | 18 nM
CC(=O)N1CCN(c2ccc(CN3[C@@H](C)CCC(c4ccccn4)S3(=O)=O)c(F)c2)CC1 (single isomer, unassigned) [Compound 17] | 825 nM
